Test results from patent US20080312271A1, “AZABENZIMIDAZOLYL COMPOUNDS” (Pfizer Inc., priority 2006, published 2008).
Read-outs that look alike come from different tables or passages of the source.

Molecular target: T1, mGluR2 receptor (metabotropic glutamate receptor 2) (Homo sapiens, UniProt Q14416)
T1 construct: expressed in transfected cells
Assay: mGluR2 Potentiator Screen, FLIPR, EC10-EC20 glutamate challenge
Assay type: cell-based
Procedure, shortened: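 Potentiator assay in HEK cells stably expressing mGluR2 with Gα15, glutamine-depleted overnight, loaded with Fluo-4 plus probenecid and GPT/pyruvate to remove glutamate. Peak fluorescence ratio curve-fitted, with maximum set by on-plate standards.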

[1] = mGluR2 potentiator screen, FLIPR, EC10-EC20 glutamate challenge
[2] = HEK cells stably transfected with mGluR2 and Gα15, FLIPR (Fluo-4), potentiation of an EC10 to EC20 concentration of glutamate, Table 9

T1 sequence (Q14416 19-872, species assumed): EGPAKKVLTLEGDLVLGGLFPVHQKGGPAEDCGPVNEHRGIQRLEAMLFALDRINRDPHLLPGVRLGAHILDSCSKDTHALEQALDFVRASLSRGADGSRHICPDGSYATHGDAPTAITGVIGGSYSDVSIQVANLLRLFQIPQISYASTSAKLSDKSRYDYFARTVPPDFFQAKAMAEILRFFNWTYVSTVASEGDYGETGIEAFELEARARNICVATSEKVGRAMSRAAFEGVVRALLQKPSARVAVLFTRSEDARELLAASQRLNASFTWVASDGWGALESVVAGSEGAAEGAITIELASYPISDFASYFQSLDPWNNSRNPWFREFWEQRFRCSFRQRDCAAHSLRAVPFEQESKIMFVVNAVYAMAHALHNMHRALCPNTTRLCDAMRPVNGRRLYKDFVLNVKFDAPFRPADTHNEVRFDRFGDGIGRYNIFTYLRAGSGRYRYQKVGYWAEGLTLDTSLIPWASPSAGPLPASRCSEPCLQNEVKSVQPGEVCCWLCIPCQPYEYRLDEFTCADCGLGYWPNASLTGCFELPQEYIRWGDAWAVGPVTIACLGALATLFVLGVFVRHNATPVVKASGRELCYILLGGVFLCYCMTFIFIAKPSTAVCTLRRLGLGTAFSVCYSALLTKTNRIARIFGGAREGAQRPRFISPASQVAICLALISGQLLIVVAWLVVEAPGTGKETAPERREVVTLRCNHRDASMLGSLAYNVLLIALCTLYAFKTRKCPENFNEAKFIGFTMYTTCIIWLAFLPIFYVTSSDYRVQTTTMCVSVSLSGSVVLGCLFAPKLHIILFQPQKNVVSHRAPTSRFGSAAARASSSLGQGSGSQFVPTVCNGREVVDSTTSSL

Row | Structure (SMILES) | EC50 | other results
1 | COc1ccccc1C1CCN(Cc2nc3cccnc3n2C)CC1C (stereo not shown) [compound 59] | 0.349 µM | 
2 | Cn1c(CN2CCC(c3c(F)cccc3C(F)(F)F)CC2)nc2cnccc21 [compound 228] | > 0.458 µM | 
3 | COc1cc(F)ccc1C1CCN(Cc2nc3cnccc3n2C)CC1 [compound 88] | 0.372 µM | 
4 | C[C@@H]1CN(Cc2nc3cnccc3n2C)CC[C@@H]1c1cc(F)c(F)cc1F (relative stereo) [compound 180] | 0.762 µM | 
5 | CC(C)Oc1ccc([C@H]2CCN(Cc3nc4cnccc4n3C)C[C@H]2C)c(F)c1 (relative stereo) [compound 167] | > 0.172 µM | 
6 | C[C@@H]1CN(Cc2nc3ncccc3n2C)CC[C@@H]1c1ccc(C(F)(F)F)cc1Cl (relative stereo) [compound 151] | 0.03 µM | 
7 | Cn1c(CN2CCC(c3ccc(F)cc3F)CC2)nc2cnccc21 [compound 84] | 0.218 µM | 
8 | C[C@@H]1CN(Cc2nc3ncccc3n2C)CC[C@@H]1c1ccc(F)cc1F (relative stereo) [compound 124] | 0.118 µM | 
9 | Cn1c(CN2CCC(c3ccc(Cl)c(F)c3)CC2)nc2cccnc21 [compound 109] | 0.378 µM | 
10 | C[C@@H]1CN(Cc2nc3cnccc3n2C)CC[C@@H]1c1ccc(OC(F)(F)F)cc1F (single isomer, unassigned) [compound 196] | 0.056 µM | 
11 | COc1cc(F)ccc1C1CCN(Cc2nc3ncccc3n2C)CC1 [compound 87] | 0.212 µM | 
12 | C[C@@H]1CN(Cc2nc3ncccc3n2C)CC[C@@H]1c1ccc(C(F)(F)F)cc1Cl (single isomer, unassigned) [compound 162] | < 0.018 µM | 
13 | C[C@@H]1CN(Cc2nc3cnccc3n2C)CC[C@@H]1c1ccc(OC(F)(F)F)cc1Cl (single isomer, unassigned) [compound 253] |  | EC50 [1]: 1.82 µM
14 | Cc1cc(F)ccc1[C@H]1CCN(Cc2nc3cnccc3n2C)C[C@H]1C (relative stereo) [compound 205] | 0.243 µM | 
15 | C[C@@H]1CN(Cc2nc3ncccc3n2C)CC[C@@H]1c1ccc(Cl)cc1Cl (single isomer, unassigned) [compound 186] | 0.611 µM | 
16 | Cn1c(CN2CCC(c3cc(C(F)(F)F)ccc3F)CC2)nc2cnccc21 [compound 57] | 0.448 µM | 
17 | C[C@@H]1CN(Cc2nc3ncccc3n2C)CC[C@@H]1c1ccc(OC(F)F)cc1Cl (single isomer, unassigned) [compound 244] |  | EC50 [1]: 0.036 µM
18 | Cc1cc(NC(=O)c2cccc(C3CCN(Cc4nc5ncccc5n4C)CC3)c2)n[nH]1 [compound 105] | 3.66 µM | 
19 | CC(C)Oc1ccc([C@H]2CCN(Cc3nc4cnccc4n3C)C[C@H]2C)c(Cl)c1 (relative stereo) [compound 170] | 0.284 µM | 
20 | C[C@@H]1CN(Cc2nc3ncccc3n2C)CC[C@@H]1c1ccc(Cl)cc1Cl (single isomer, unassigned) [compound 185] | 0.0642 µM | 
21 | COc1cc(C(F)(F)F)ccc1C1CCN(Cc2nc3nccc4c3n2CCC4)CC1 [Example 135, 2-({4-[2-methoxy-4-(trifluoromethyl)phenyl]-piperidin-1-yl}methyl)-5,6-dihydro-4H-imidazo[4,5,1-ij]-1,7-naphthyridine] | < 0.00543 µM | EC50 [2]: < 0.00543 µM
22 | C[C@@H]1CN(Cc2nc3cnccc3n2C)CC[C@@H]1c1ccc2c(c1)CCO2 (relative stereo) [compound 201] | > 1.07 µM | 
23 | C[C@@H]1CN(Cc2nc3ncccc3n2C)CC[C@@H]1c1ccc(F)cc1OC(F)F (relative stereo) [compound 274] |  | EC50 [1]: 0.0755 µM
24 | COc1ccccc1C1CCN(Cc2nc3ncccc3n2C)CC1 [compound 51] | 1.54 µM | 

Row | Structure (SMILES) | EC50 | other results
25 | CC(C)Oc1ccc(C2CCN(Cc3nc4ncccc4n3C)CC2)c(Cl)c1 [compound 269] |  | EC50 [1]: 0.0657 µM
26 | C[C@@H]1CN(Cc2nc3ncccc3n2C)CC[C@@H]1c1ccc(F)cc1C(F)(F)F (relative stereo) [compound 204] | 0.0283 µM | 
27 | COc1cc(C2CCN(Cc3nc4cnccc4n3C)CC2)ccc1C(F)(F)F [compound 278] |  | EC50 [1]: 0.245 µM
28 | Cn1c(CN2CCC(c3ccccc3F)CC2)nc2cnccc21 [compound 49] | 1.05 µM | 
29 | COc1ccc(C2CCN(Cc3nc4ncccc4n3C)CC2)cc1F [compound 92] | 2.8 µM | 
30 | Cn1c(CN2CCC(c3c(F)cccc3C(F)(F)F)CC2)nc2ncccc21 [compound 229] |  | EC50 [1]: 0.212 µM
31 | Cn1c(CN2CCC(c3ccc(F)c(Cl)c3)CC2)nc2cccnc21 [compound 103] | 0.367 µM | 
32 | Cn1c(CN2CCC(c3ccc(Cl)cc3F)CC2)nc2cccnc21 [compound 112] | 0.0585 µM | 
33 | CCOc1ccc(Cl)cc1C1CCN(Cc2nc3ncccc3n2C)CC1 [compound 41] | 4.81 µM | 
34 | COc1ccccc1[C@]1(C)CCN(Cc2nc3ncccc3n2C)C[C@@H]1C [compound 56] | 3.82 µM | 
35 | Cn1c(CN2CCC(c3cc(C(F)(F)F)ccc3F)CC2)nc2ncccc21 [compound 58] | 5.95 µM | 
36 | Cc1cc(OC(F)(F)F)ccc1C1CCN(Cc2nc3ncccc3n2C)CC1 [compound 241] |  | EC50 [1]: 0.0507 µM
37 | C[C@@H]1CN(Cc2nc3cnccc3n2C)CC[C@@H]1c1ccc(F)c(C(F)(F)F)c1 (relative stereo) [compound 198] | 0.176 µM | 
38 | C[C@@H]1CN(Cc2nc3cnccc3n2C)CC[C@@H]1c1ccc(OC(F)(F)F)cc1 (single isomer, unassigned) [compound 175] | > 3.2 µM | 
39 | CCOc1ccc([C@H]2CCN(Cc3nc4ncccc4n3C)C[C@H]2C)cc1 (relative stereo) [compound 120] | 0.639 µM | 
40 | Cc1cccc(C2CCN(Cc3nc4ncccc4n3C)CC2)c1 [compound 62] | 0.617 µM | 
41 | CC(C)Oc1ccc(C2CCN(Cc3nc4cnccc4n3C)CC2)c(Cl)c1 [compound 267] |  | EC50 [1]: 0.0855 µM
42 | Cn1c(CN2CCC(c3ccc(C(F)(F)F)cc3Cl)CC2)nc2cnccc21 [compound 273] |  | EC50 [1]: 0.085 µM
43 | C[C@@H]1CN(Cc2nc3ncccc3n2C)CC[C@@H]1c1cc(F)c(F)cc1F (relative stereo) [compound 179] | 0.381 µM | 
44 | Cn1c(CN2CCC(c3ccc(F)cc3F)CC2)nc2ncccc21 [compound 82] | 0.251 µM | 
45 | COc1cc(F)ccc1[C@H]1CCN(Cc2nc3ncccc3n2C)C[C@H]1C (relative stereo) [compound 132] | 0.0785 µM | 
46 | C[C@@H]1CN(Cc2nc3ncccc3n2C)CC[C@@H]1c1ccc2c(c1)CCCC2 (relative stereo) [compound 189] | 0.621 µM | 
47 | Cn1c(CN2CCC(c3ccccc3F)CC2)nc2ncccc21 [compound 54] | 1.59 µM | 
48 | FC(F)(F)c1ccc(C2CCN(Cc3nc4nccc5c4n3CCC5)CC2)cc1 [Example 126, 2-({4-[4-(trifluoromethyl)phenyl]-piperidin-1-yl}methyl)-5,6-dihydro-4H-imidazo[4,5,1-ij]-1,7-naphthyridine] | 0.0626 µM | EC50 [2]: 0.0626 µM

Row | Structure (SMILES) | EC50 | other results
49 | C[C@@H]1CN(Cc2nc3cnccc3n2C)CC[C@@H]1c1ccc(OC(F)(F)F)cc1F (relative stereo) [compound 146] | 0.0555 µM | 
50 | Cc1cc(F)ccc1[C@H]1CCN(Cc2nc3ncccc3n2C)C[C@H]1C (relative stereo) [compound 206] | 0.0886 µM | 
51 | CC(C)Oc1cc(F)ccc1[C@H]1CCN(Cc2nc3cnccc3n2C)C[C@H]1C (relative stereo) [compound 192] | 1.17 µM | 
52 | C[C@@H]1CN(Cc2nc3cnccc3n2C)CC[C@@H]1c1ccc(C(F)(F)F)cc1F (single isomer, unassigned) [compound 143] | 1.18 µM | 
53 | Cc1cc(OC(F)(F)F)ccc1C1CCN(Cc2nc3cnccc3n2C)CC1 [compound 240] |  | EC50 [1]: 0.0968 µM
54 | Cn1c(CN2CCC(c3ccc(OC(F)(F)F)cc3)CC2)nc2cnccc21 [compound 237] |  | EC50 [1]: 0.16 µM
55 | COc1cc(C(F)(F)F)ccc1[C@H]1CCN(Cc2nc3ncccc3n2C)C[C@H]1C (single isomer, unassigned) [compound 130] | 0.787 µM | 
56 | C[C@@H]1CN(Cc2nc3cnccc3n2C)CC[C@@H]1c1ccc(C(F)(F)F)c(Cl)c1 (relative stereo) [compound 235] |  | EC50 [1]: 0.135 µM
57 | Cn1c(CN2CCC(c3ccc(F)cc3F)CC2)nc2cccnc21 [compound 85] | 0.199 µM | 
58 | CCCOc1ccc(Cl)cc1C1CCN(Cc2nc3cnccc3n2C)CC1 [compound 39] | 0.396 µM | 
59 | C[C@@H]1CN(Cc2nc3ncccc3n2C)CC[C@@H]1c1ccc(Cl)cc1F (relative stereo) [compound 115] | 0.0195 µM | 
60 | Cn1c(CN2CCC(c3ccccc3C(F)(F)F)CC2)nc2ncccc21 [compound 53] | 0.105 µM | 
61 | C[C@@H]1CN(Cc2nc3ncccc3n2C)CC[C@@H]1c1ccc(OC(F)F)cc1 (relative stereo) [compound 177] | 0.429 µM | 
62 | Cn1c(CN2CCC(c3ccc(F)c(Cl)c3)CC2)nc2ncccc21 [compound 101] | 0.313 µM | 
63 | CC(C)Oc1ccc([C@H]2CCN(Cc3nc4ncccc4n3C)C[C@H]2C)c(F)c1 (relative stereo) [compound 166] | 0.0823 µM | 
64 | CC(C)Oc1cc(F)ccc1[C@H]1CCN(Cc2nc3ncccc3n2C)C[C@H]1C (relative stereo) [compound 191] | 0.61 µM | 
65 | Cn1c(CN2CCC(c3ccc(Cl)cc3F)CC2)nc2cnccc21 [compound 113] | 0.081 µM | 
66 | CC(C)Oc1ccc([C@H]2CCN(Cc3nc4cnccc4n3C)C[C@H]2C)c(C(F)(F)F)c1 (relative stereo) [compound 216] | 0.287 µM | 
67 | C[C@@H]1CN(Cc2nc3ncccc3n2C)CC[C@@H]1c1ccc(OC(F)F)cc1 (single isomer, unassigned) [compound 224] | > 1.92 µM | 
68 | C[C@@H]1CN(Cc2nc3cnccc3n2C)CC[C@@H]1c1cc(F)c(F)cc1F (single isomer, unassigned) [compound 226] | > 1.26 µM | 
69 | Cn1c(CN2CCC(F)(c3ccc(C(F)(F)F)cc3)CC2)nc2ncccc21 [compound 99] | 0.434 µM | 
70 | Cn1c(CN2CCC(c3cccc(C(C)(C)C)c3)CC2)nc2ncccc21 [compound 79] | 0.124 µM | 
71 | CC(C)Oc1ccc([C@H]2CCN(Cc3nc4ncccc4n3C)C[C@H]2C)c(F)c1 (single isomer, unassigned) [compound 217] | 0.0298 µM | 
